In patent publication US11767341B2, “Lincosamide antibiotics and uses thereof” (President and Fellows of Harvard College, priority 2017, dated 2023):
In brackets after ≈: the same amount, converted by molar mass. Read-outs that look alike come from different tables or passages of the source.

How the values were obtained:
Test in all cases: MIC determination
Type in all cases: cell-based
[1] = test system: S. aureus ATCC 29213; conditions: Staphylococcus aureus, ATCC29213, S. aureus ATCC 29213; read-out: MIC
[2] = test system: S. aureus BAA 977 iErmA; conditions: Staphylococcus aureus, BAA977
[3] = test system: S. aureus MP-549 msr(a) USA 300; conditions: Staphylococcus aureus, USA300, S. aureus MP-549 msr(a) USA 300
[4] = test system: S. aureus Micromyx USA 300; conditions: Staphylococcus aureus, USA300; S. aureus Micromyx USA 300; read-out: MIC
[5] = test system: S. aureus MMX 3035 cErmA; conditions: Staphylococcus aureus, MMX3035CERMA
[6] = test system: S. aureus BAA-1556 (USA 300); conditions: Staphylococcus aureus
[7] = test system: S. aureus UNT96, NRS710, MP-618 (USA 100, Erythro >8); conditions: Staphylococcus aureus
[8] = test system: S. aureus UNT-146, MP-620, TP 506 (ermA); conditions: Staphylococcus aureus
[9] = test system: S. aureus UNT-120, MP-619, NRS22 (USA 600, GISA); conditions: Staphylococcus aureus
[10] = test system: S. pneumoniae ATCC 49619; conditions: Streptococcus pneumoniae, ATCC49619; S. pneumoniae ATCC 49619; read-out: MIC
[11] = test system: S. pneumoniae MMX 3028 cErmB; conditions: Streptococcus pneumoniae, MMX3028CERMB; S. pneumoniae MMX 3028 cErmB; read-out: MIC
[12] = test system: S. pneumoniae MMX 3031 cMefA; conditions: Streptococcus pneumoniae, MMX3031CMEFA
[13] = test system: S. pneumoniae UNT-038, MP-626, TP 160 (mefA); conditions: Streptococcus pneumoniae
[14] = test system: S. pneumoniae UNT-039, MP-627, TP1517 (mefA); conditions: Streptococcus pneumoniae
[15] = test system: S. pneumoniae TP 1579 (ermB + tet(M, O)); conditions: Streptococcus pneumoniae
[16] = test system: S. pneumoniae TP 1537 (ermB + mefA); conditions: Streptococcus pneumoniae
[17] = test system: S. pyogenes ATCC 19615; conditions: Streptococcus pyogenes, ATCC19615; S. pyogenes ATCC 19615; read-out: MIC
[18] = test system: S. pyogenes MMX 946 Macrolide-Resistant; conditions: Streptococcus pyogenes
[19] = test system: S. pyogenes UNT-014, MP-625 MacRes; conditions: Streptococcus pyogenes; S. pyogenes UNT-014, MP-625 MacRes; read-out: MIC
[20] = test system: E. faecalis ATCC 29212; conditions: Enterococcus faecalis
[21] = test system: E. faecalis MMX 847 Macrolide-Resistant; conditions: Enterococcus faecalis
[22] = test system: E. faecalis UNT-047 VRE; conditions: Enterococcus faecalis
[23] = test system: C. difficile BAA 1805; conditions: Clostridioides difficile, BAA1805; C. difficile BAA 1805; read-out: MIC
[24] = test system: B. fragilis ATCC 25285; conditions: Bacteroides fragilis, ATCC25285; B. fragilis ATCC 25285; read-out: MIC
[25] = test system: K. pneumoniae ATCC 10031; conditions: Klebsiella pneumoniae, ATCC10031; K. pneumoniae ATCC 10031; read-out: MIC
[26] = test system: K. pneumoniae IHMA 658692; KPC-2; conditions: Klebsiella pneumoniae
[27] = test system: K. pneumoniae UNT TEM-10; conditions: Klebsiella pneumoniae, UNTTEM10
[28] = test system: E. coli ATCC 25922; conditions: Escherichia coli
[29] = test system: E. coli MMX TolC parent strain; conditions: Escherichia coli
[30] = test system: E. coli MMX 0121 ΔTolC; conditions: Escherichia coli
[31] = test system: E. coli GUEST131 (NDM-1); conditions: Escherichia coli
[32] = test system: P. aeruginosa ATCC 27853; conditions: Pseudomonas aeruginosa, ATCC27853
[33] = test system: P. aeruginosa MMX Mex parent strain; conditions: Pseudomonas aeruginosa
[34] = test system: P. aeruginosa MMX 3476 Δmex; conditions: Pseudomonas aeruginosa
[35] = test system: H. influenzae ATCC 49247; conditions: Haemophilus influenzae, ATCC49247; H. influenzae ATCC 49247; read-out: MIC

CSC1O[C@H]([C@H](NC(=O)[C@H]2NC[C@@H]3CC=CCO[C@H]32)[C@H](C)Cl)C(O)[C@@H](O)[C@H]1O (stereo partly drawn) [FSA-24035]
MIC [1]: 0.12 µg/mL (≈ 0.275 µM)
MIC [2]: 0.25 µg/mL (≈ 0.572 µM)
MIC [3]: 0.5 µg/mL (≈ 1.14 µM)
MIC [4]: 0.12 µg/mL (≈ 0.275 µM)
MIC [5]: > 64 µg/mL
MIC [6]: > 32 µg/mL
MIC [7]: > 32 µg/mL
MIC [8]: > 32 µg/mL
MIC [9]: > 32 µg/mL
MIC [10]: ≤ 0.06 µg/mL
MIC [11]: 64 µg/mL (≈ 146 µM)
MIC [12]: ≤ 0.06 µg/mL
MIC [13]: ≤ 0.0313 µg/mL
MIC [14]: ≤ 0.0313 µg/mL
MIC [15]: ≤ 0.0313 µg/mL
MIC [16]: 32 µg/mL (≈ 73.2 µM)
MIC [17]: ≤ 0.0313 µg/mL
MIC [18]: 16 µg/mL (≈ 36.6 µM)
MIC [19]: ≤ 0.0313 µg/mL
MIC ([20]; ATCC29212): 16 µg/mL (≈ 36.6 µM)
MIC [21]: > 64 µg/mL
MIC ([22]; VRE): > 32 µg/mL
MIC [23]: 2 µg/mL (≈ 4.58 µM)
MIC [24]: 8 µg/mL (≈ 18.3 µM)
MIC [25]: 64 µg/mL (≈ 146 µM)
MIC [26]: 32 µg/mL (≈ 73.2 µM)
MIC [27]: 32 µg/mL (≈ 73.2 µM)
MIC ([28]; ATCC25922): > 64 µg/mL
MIC [29]: > 64 µg/mL
MIC [30]: 4 µg/mL (≈ 9.15 µM)
MIC [31]: > 32 µg/mL
MIC [32]: > 64 µg/mL
MIC [33]: > 64 µg/mL
MIC [34]: 16 µg/mL (≈ 36.6 µM)
MIC [35]: 1 µg/mL (≈ 2.29 µM)

CSC1O[C@H]([C@H](NC(=O)[C@H]2NC[C@@H]3CC(F)(F)CCO[C@H]32)[C@H](C)Cl)C(O)[C@@H](O)[C@H]1O (stereo partly drawn) [FSA-24036]
MIC [1]: 0.25 µg/mL (≈ 0.526 µM)
MIC [2]: 0.5 µg/mL (≈ 1.05 µM)
MIC [4]: 0.12 µg/mL (≈ 0.253 µM)
MIC ([5]; S. aureus MMX 3035 cErmA, read-out: MIC): > 64 µg/mL
MIC ([6]; S. aureus BAA-1556 (USA 300), read-out: MIC): > 32 µg/mL
MIC ([7]; S. aureus UNT96, NRS710, MP-618 (USA 100, Erythro >8), read-out: MIC): > 32 µg/mL
MIC ([8]; S. aureus UNT-146, MP-620, TP 506 (ermA), read-out: MIC): > 32 µg/mL
MIC ([9]; S. aureus UNT-120, MP-619, NRS22 (USA 600, GISA), read-out: MIC): > 32 µg/mL
MIC [10]: ≤ 0.06 µg/mL
MIC [11]: 64 µg/mL (≈ 135 µM)
MIC [12]: ≤ 0.06 µg/mL
MIC [13]: ≤ 0.0313 µg/mL
MIC [14]: ≤ 0.0313 µg/mL
MIC [15]: ≤ 0.0313 µg/mL
MIC ([16]; S. pneumoniae TP 1537 (ermB + mefA), read-out: MIC): > 32 µg/mL
MIC [17]: ≤ 0.0313 µg/mL
MIC ([18]; S. pyogenes MMX 946 Macrolide-Resistant (MacRes), read-out: MIC): 4 µg/mL (≈ 8.42 µM)
MIC [19]: ≤ 0.0313 µg/mL
MIC ([20]; ATCC29212, read-out: MIC): 4 µg/mL (≈ 8.42 µM)
MIC ([21]; E. faecalis MMX 847 Macrolide-Resistant (MacRes), read-out: MIC): > 64 µg/mL
MIC ([22]; E. faecalis UNT-047 VRE, read-out: MIC): > 32 µg/mL
MIC [23]: 2 µg/mL (≈ 4.21 µM)
MIC [24]: 4 µg/mL (≈ 8.42 µM)
MIC [25]: 16 µg/mL (≈ 33.7 µM)
MIC ([26]; K. pneumoniae IHMA 658692, KPC-2, read-out: MIC): > 32 µg/mL
MIC ([27]; K. pneumoniae UNT TEM-10, read-out: MIC): > 32 µg/mL
MIC ([28]; ATCC25922, E. coli ATCC 25922, read-out: MIC): > 64 µg/mL
MIC ([29]; E. coli MMX TolC parent strain, read-out: MIC): > 64 µg/mL
MIC [30]: 8 µg/mL (≈ 16.8 µM)
MIC [31]: > 32 µg/mL
MIC ([32]; P. aeruginosa ATCC 27853, read-out: MIC): > 64 µg/mL
MIC ([33]; P. aeruginosa MMX Mex parent strain, read-out: MIC): > 64 µg/mL
MIC [34]: 32 µg/mL (≈ 67.4 µM)
MIC [35]: 4 µg/mL (≈ 8.42 µM)
